“And” between values parts separate entries of the source, which are not always exact repeats. Identical values can stand only once. Like-named read-outs stand apart in the source and are kept apart here.
Assays:
[1] = test system: CT-DNA; assay: UV absorption spectrum method with CT-DNA; format: binding; details: CT-DNA 40 ug/ml, compound 20 uM, 37° C. for 2 h, OD at 260 nm
Method: Compounds to be tested (20 uM) were added into the PE buffer solution, and its scan curve was identified by the spectrograph at a wavelength of from 200 to 400 nm. CT-DNA (40 ug/ml) and compounds to be tested (20 uM) were added into the PE buffer solution. The mixture was cultured at 37° C. for 2 h, and its scan curve was identified by the UV spectrograph at a wavelength of from 200 to 400 nm. […] After that, the OD value at 260 nm of the scan curve of the medicaments tested and that of the CT-DNA mixture OD value at 260 nm of the scan curve were calculated and compared to determine the influences of the medicaments tested on the UV absorption spectrum of the DNA molecules.

[2] = test system: CT-DNA; assay: DNA thermal denaturation, determination of ΔTm; format: binding; details: CT-DNA thermal denaturation; 20 uM compound; Tm of CT-DNA alone 61° C.
Method: Experiments were carried out in PE buffer (1 mM Na2HPO4, 0.1 mM EDTA, pH 7.6) in a thermostatically controlled cell hold, and the quartz cuvette (1 cm path length) was heated by circulating water at a heating rate of 0.5° C./min from 25 to 95° C. Amsacrine and Doxorubicin Hydrochloride were used as standards. In all cases, the concentration of CT-DNA was 15 ug/ml. The ‘melting’ temperature Tm was taken as the mid-point of the hyperchromic transition.
ΔTm=Tm^drug-DNA complex−Tm^DNA alone
The ΔTm of each compound was calculated, Experiments were repeated three times, and an average value was calculated.

[3] = test system: S180 sarcoma; details: comparison table 43, in vivo, S180 sarcoma
[4] = test system: Lovo; assay: In vitro cytotoxicity, IC50 by MTT method, Lovo; format: cell-based
Outline: (§1)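 Cells in RPMI1640 with 10% FBS at 37° C, 5% CO2 were seeded at 10^5/ml and exposed to a compound concentration gradient for 48 h, at least three replicates, solvent controls.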

[5] = test system: BGC-823; assay: In vitro cytotoxicity, IC50 by MTT method, BGC-823; format: cell-based
Outline: as §1

[6] = test system: PLA-801; assay: In vitro cytotoxicity, IC50 by MTT method, PLA-801; format: cell-based
Outline: as §1

[7] = test system: HepG2; assay: In vitro cytotoxicity, IC50 by MTT method, HepG2; format: cell-based, human
Outline: as §1

[8] = test system: Bel-7402; assay: In vitro cytotoxicity, IC50 by MTT method, Bel-7402; format: cell-based
Outline: as §1

[9] = test system: NIH3T3; assay: In vitro cytotoxicity, IC50 by MTT method, NIH3T3; format: cell-based
Outline: as §1

[10] = test system: Hela; assay: In vitro cytotoxicity, IC50 by MTT method, Hela; format: cell-based
Outline: as §1

[11] = test system: Lewis lung cancer; details: comparison table 43, in vivo, Lewis lung cancer;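 further: mice implanted subcutaneously in the axilla with Lewis lung tumor cells, treated starting the following day, killed roughly three weeks after implantation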
[12] = Solubility (physico-chemical data tables); details: qualitative
[13] = Lovo cell strain, read-out: IC50 Lovo
[14] = Table 12, 3,9-disubstituted β-carboline derivatives
[15] = BGC823 cell strain, read-out: IC50 BGC823
[16] = PLA-801 cell strain, read-out: IC50 PLA-801
[17] = HepG2 cell strain, read-out: IC50 HepG2
[18] = Bel7402 cell strain, read-out: IC50 Bel7402
[19] = NIH3T3 cell strain, read-out: IC50 NIH3T3
[20] = Hela cell strain, read-out: IC50 Hela
[21] = Homo sapiens, Lovo cell strain, read-out: IC50 Lovo
[22] = Table 15, 1,3,9-substituted β-carboline derivatives
[23] = Homo sapiens, BGC-823, BGC823 cell strain, read-out: IC50 BGC823
[24] = Homo sapiens, HepG2 cell strain, read-out: IC50 HepG2
[25] = Homo sapiens, Bel-7402, Bel7402 cell strain, read-out: IC50 Bel7402
[26] = Mus musculus, NIH3T3 cell strain, read-out: IC50 NIH3T3
[27] = Homo sapiens, Hela cell strain, read-out: IC50 Hela

Compound	Solubility [12, 22]	melting point	Influence on the UV absorption of DNA [1]	IC50 [4, 13] [µM]	IC50 [5, 15] [µM]	IC50 [6, 16] [µM]	IC50 [7, 17] [µM]	IC50 [8, 18] [µM]	IC50 [9, 19] [µM]	IC50 [10, 20] [µM]	IC50 [4, 21] [µM]	IC50 [5, 23] [µM]	IC50 [7, 24] [µM]	IC50 [8, 25] [µM]	IC50 [9, 26] [µM]	IC50 [10, 27] [µM]	also measured
COc1ccc2c(c1)[nH]c1c(C)nccc12 [Compound 1, reference compound]	–	–	reduce the UV absorption of DNA	–	–	–	–	–	–	–	–	–	–	–	–	–	ΔTm [2]: 8.5 °C; Inhibition rate (%) S180 sarcomata [3]: 15.3%; IC50 ([4]; Homo sapiens, LoVo): 70 µM; IC50 ([5]; Homo sapiens, BGC-823): 70 µM; IC50 [6]: 50 µM; IC50 ([7]; Homo sapiens, HepG2): 50 µM; IC50 ([8]; Homo sapiens, Bel-7402): 20 µM; IC50 ([9]; Mus musculus, NIH3T3): 60 µM; IC50 ([10]; Homo sapiens, HeLa): 60 µM; Inhibition rate (%) Lewis cancer [11]: 34.1%
O=C(O)c1cc2c3ccccc3n(Cc3c(F)c(F)c(F)c(F)c3F)c2cn1 [Compound 49, 9-(2′,3′,4′,5′,6′-pentafluoro)benzyl-β-carboline-3-carboxylic acid]	–	–	increase the UV absorption of DNA	10	40	90	30	60	20	40	–	–	–	–	–	–	Solubility [12, 14]: soluble in DMSO
O=C(Cn1c2ccccc2c2cc(C(=O)O)ncc21)c1ccccc1 [Compound 50, 9-acetophenone-β-carboline-3-carboxylic acid]	–	–	–	70	60	140	90	140	50	70	–	–	–	–	–	–	Solubility [12, 14]: soluble in DMSO
Cc1nc(C(=O)O)cc2c3ccccc3n(Cc3c(F)c(F)c(F)c(F)c3F)c12 [Compound 66, 9-(2′,3′,4′,5′,6′-pentafluoro)benzyl-1-methyl-β-carboline-3-carboxylic acid]	soluble in DMSO	–	increase the UV absorption of DNA	80	160	190	120	120	80	110	–	–	–	–	–	–	–
Cc1nc(C(=O)O)cc2c3ccccc3n(CC(=O)c3ccccc3)c12 [Compound 67, 9-acetophenone-1-methyl-β-carboline-3-carboxylic acid]	soluble in DMSO	–	–	1340	1520	2000	2230	> 3000	1460	2480	–	–	–	–	–	–	–
CCCc1nc(C(=O)O)cc2c3ccccc3n(Cc3ccccc3)c12 [Compound 74, 9-benzyl-1-propyl-β-carboline-3-carboxylic acid]	soluble in DMSO	193 to 194 °C	–	–	–	270	–	–	–	–	140	270	170	180	160	160	–
CCCCn1c2ccccc2c2ccncc21 [Compound 83, 9-n-butyl-β-carboline]	–	78 to 79 °C	reduce the UV absorption of DNA	–	–	130	–	–	–	–	130	100	100	160	80	90	ΔTm [2]: 2.4 °C

Now from value to molecule, other results behind:

Solubility [12, 22]	melting point	Compound	Influence on the UV absorption of DNA [1]	IC50 [4, 13] [µM]	IC50 [5, 15] [µM]	IC50 [6, 16] [µM]	IC50 [7, 17] [µM]	IC50 [8, 18] [µM]	IC50 [9, 19] [µM]	IC50 [10, 20] [µM]	IC50 [4, 21] [µM]	IC50 [5, 23] [µM]	IC50 [7, 24] [µM]	IC50 [8, 25] [µM]	IC50 [9, 26] [µM]	IC50 [10, 27] [µM]	also measured
soluble in DMSO	246 to 248 °C	Cc1nc(C(=O)O)cc2c3ccccc3n(Cc3ccccc3)c12 [Compound 64, 9-benzyl-1-methyl-β-carboline-3-carboxylic acid]	–	–	–	410	–	–	–	–	200	280	280	690	140	370	–
soluble in DMSO	223 to 234 °C and 223 to 224 °C	Cn1c2ccccc2c2cc(C(=O)O)nc(-c3ccccc3)c21 [Compound 78, 9-methyl-1-phenyl-β-carboline-3-carboxylic acid]	–	–	–	650	–	–	–	–	110	210	160	280	150	170	–
soluble in DMSO	194 to 195 °C	CCn1c2ccccc2c2cc(C(=O)O)nc(-c3ccccc3)c21 [Compound 79, 9-ethyl-1-phenyl-β-carboline-3-carboxylic acid]	–	–	–	110	–	–	–	–	100	250	160	140	120	140	–

From US20090227619A1, “Harmine derivatives, intermediates used in their preparations, preparation processes and use therefo” (priority 2003, published 2009)
